Data taken from DBAASP.
Values after ≈ are worked out from the molar mass of the structure shown.

Columns and labels:
Experiment in all cases: ≥ marks a high value that may be exact or a test limit, other limits are often not marked, values filed in µg/mL are converted to µM
[1] = test system: Pseudomonas aeruginosa H1001
[2] = test system: Staphylococcus epidermidis ATCC 12228
[3] = test system: Staphylococcus aureus ATCC 29213
[4] = test system: Enterococcus faecalis ATCC 29212
[5] = test system: Escherichia coli ATCC 25922
[6] = test system: Salmonella enterica subsp. enterica serovar Pullorum C79-13
[7] = test system: Salmonella enterica subsp. enterica serovar Typhimurium C77-31
[8] = test system: Micrococcus luteus ATCC 9341
[9] = test system: Streptococcus mutans
[10] = test system: Staphylococcus aureus ATCC 25923
[11] = test system: Candida albicans
[12] = test system: Salmonella enterica serovar Typhimurium
[13] = test system: Escherichia coli UB1005
[14] = test system: Pseudomonas aeruginosa H103
[15] = test system: Staphylococcus epidermidis
[16] = test system: Escherichia coli BL21AI
[17] = test system: Micrococcus luteus ATCC 10240
[18] = test system: Escherichia coli BW25113

NCCCC[C@H](NC(=O)[C@H](CCCCN)NC(=O)[C@H](Cc1c[nH]c2ccccc12)NC(=O)[C@H](CCCCN)NC(=O)[C@H](Cc1c[nH]c2ccccc12)NC(=O)[C@H](Cc1c[nH]c2ccccc12)NC(=O)[C@@H](N)CCCCN)C(N)=O [KWWKWKK]
MIC [1]: ≥ 229 µM

CC[C@H](C)[C@H](NC(=O)[C@H](CCCCN)NC(=O)[C@H](Cc1c[nH]c2ccccc12)NC(=O)[C@H](CCCCN)NC(=O)[C@@H](N)CCCCN)C(=O)N[C@H](C(=O)N[C@H](C(=O)N[C@H](C(=O)N[C@@H](CCCCN)C(=O)N[C@@H](Cc1c[nH]c2ccccc12)C(=O)N[C@@H](CCCCN)C(=O)N[C@@H](CCCCN)C(N)=O)[C@@H](C)CC)C(C)C)C(C)C [KKWKIVVIKWKK]
MIC [1]: 2.53 µM (≈ 4 µg/mL)

NCCCC[C@H](NC(=O)CNC(=O)[C@H](CC(N)=O)NC(=O)[C@H](CCCCN)NC(=O)[C@H](Cc1c[nH]c2ccccc12)NC(=O)[C@H](CCCCN)NC(=O)[C@H](Cc1c[nH]c2ccccc12)NC(=O)[C@H](CCCCN)NC(=O)[C@@H](N)Cc1c[nH]c2ccccc12)C(=O)N[C@@H](Cc1c[nH]c2ccccc12)C(=O)N[C@@H](CCCCN)C(=O)N[C@@H](Cc1c[nH]c2ccccc12)C(=O)N[C@@H](CCCCN)C(=O)N[C@@H](Cc1c[nH]c2ccccc12)C(=O)O [WKWKWKNGKWKWKW]
MIC [2]: 32 µM (≈ 66.4 µg/mL) | MIC [3]: 4 µM (≈ 8.3 µg/mL) | MIC [4]: 16 µM (≈ 33.2 µg/mL) | MIC [5]: 2 µM (≈ 4.15 µg/mL) | MIC [6]: 4 µM (≈ 8.3 µg/mL) | MIC [7]: 8 µM (≈ 16.6 µg/mL)

NCCCC[C@H](NC(=O)[C@@H](N)Cc1c[nH]c2ccccc12)C(=O)N[C@@H](Cc1c[nH]c2ccccc12)C(=O)N1CCC[C@H]1C(=O)N[C@@H](Cc1c[nH]c2ccccc12)C(=O)N[C@@H](Cc1c[nH]c2ccccc12)C(=O)N1CCC[C@H]1C(=O)N[C@@H](Cc1c[nH]c2ccccc12)C(=O)N[C@@H](CCCN=C(N)N)C(=O)N[C@@H](CCCN=C(N)N)C(N)=O [WKWPWWPWRR]
MIC [8]: 0.4 µM (≈ 0.633 µg/mL)

CC[C@H](C)[C@H](N)C(=O)N[C@@H](CC(C)C)C(=O)N1CCC[C@H]1C(=O)N[C@@H](CCC(=O)O)C(=O)N[C@@H](CCCCN)C(=O)N[C@@H](CCC(=O)O)C(=O)N1CCC[C@H]1C(=O)N[C@@H](CCC(=O)O)C(=O)N[C@@H](CCC(=O)O)C(=O)N1CCC[C@H]1C(=O)N[C@@H](CCC(=O)O)C(=O)N[C@@H](CCCN=C(N)N)C(=O)N[C@@H](CCCN=C(N)N)C(N)=O [ILPEKEPEEPERR]
MIC [8]: ≥ 100 µM

NC(N)=NCCC[C@H](NC(=O)[C@H](Cc1c[nH]c2ccccc12)NC(=O)[C@H](Cc1c[nH]c2ccccc12)NC(=O)[C@H](Cc1c[nH]c2ccccc12)NC(=O)[C@H](CCCN=C(N)N)NC(=O)[C@H](CCCN=C(N)N)NC(=O)[C@@H](N)CCCN=C(N)N)C(=O)O [RRRWWWR]
MIC [9]: 26.6 µM (≈ 32 µg/mL)

CC[C@H](C)[C@H](NC(=O)[C@H](Cc1c[nH]c2ccccc12)NC(=O)[C@H](Cc1c[nH]c2ccccc12)NC(=O)[C@H](CCCCN)NC(=O)[C@H](Cc1c[nH]c2ccccc12)NC(=O)[C@H](CCCN=C(N)N)NC(=O)[C@H](CCCN=C(N)N)NC(=O)[C@H](CCCCN)NC(=O)[C@@H](N)CC(C)C)C(=O)O [LKRRWKWWI]
MIC [10]: 2.4 µM (≈ 3.29 µg/mL) | MIC [11]: 19.1 µM (≈ 26.2 µg/mL) | MIC [12]: 9.6 µM (≈ 13.2 µg/mL) | MIC [13]: 2.4 µM (≈ 3.29 µg/mL) | MIC [14]: 19.1 µM (≈ 26.2 µg/mL) | MIC [4]: 9.6 µM (≈ 13.2 µg/mL) | MIC [15]: 1.2 µM (≈ 1.65 µg/mL)

NCCCC[C@H](NC(=O)[C@H](CCCN=C(N)N)NC(=O)[C@H](CCCN=C(N)N)NC(=O)[C@H](CCCCN)NC(=O)[C@H](Cc1c[nH]c2ccccc12)NC(=O)[C@H](CCCN=C(N)N)NC(=O)[C@@H](N)CCCN=C(N)N)C(=O)O [RRWKRRK]
MIC [9]: ≥ 461 µM

CC[C@H](C)[C@H](NC(=O)[C@@H](N)Cc1ccccc1)C(=O)N[C@@H](CCCN=C(N)N)C(=O)N[C@@H](Cc1c[nH]c2ccccc12)C(=O)N[C@@H](CCCN=C(N)N)C(=O)N[C@@H](Cc1ccccc1)C(=O)N[C@@H](CCCN=C(N)N)C(=O)N[C@@H](Cc1c[nH]c2ccccc12)C(=O)N[C@@H](Cc1c[nH]c2ccccc12)C(=O)N[C@@H](CCCN=C(N)N)C(=O)N[C@@H](Cc1c[nH]c2ccccc12)C(=O)N[C@@H](CCCN=C(N)N)C(=O)N[C@@H](CCCN=C(N)N)C(N)=O [FIRWRFRWWRWRR]
MIC [1]: 2.85 µM (≈ 6 µg/mL)

CC[C@H](C)[C@H](NC(=O)[C@H](Cc1ccc(O)cc1)NC(=O)[C@@H](NC(=O)[C@@H]1CCCN1C(=O)[C@H](CCCN=C(N)N)NC(=O)[C@H](CC(N)=O)NC(=O)[C@H](CC(N)=O)NC(=O)CN)C(C)C)C(=O)N[C@@H](C)C(=O)N[C@@H](CCC(N)=O)C(=O)N1CCC[C@H]1C(=O)N[C@@H](CCCN=C(N)N)C(=O)N1CCC[C@H]1C(=O)N1CCC[C@H]1C(=O)N[C@@H](Cc1cnc[nH]1)C(=O)N1CCC[C@H]1C(=O)N[C@@H](C)C(=O)N[C@@H](CC(C)C)C(N)=O [GNNRPVYIAQPRPPHPAL]
MIC [16]: ≥ 62.6 µM | MIC [17]: ≥ 62.6 µM

CC(C)C[C@H](NC(=O)[C@H](Cc1ccccc1)NC(=O)[C@H](CCCCN)NC(=O)[C@H](Cc1c[nH]c2ccccc12)NC(=O)[C@H](Cc1c[nH]c2ccccc12)NC(=O)[C@H](CCCN=C(N)N)NC(=O)[C@H](CCCCN)NC(=O)[C@H](CC(C)C)NC(=O)[C@@H](N)CCCN=C(N)N)C(=O)O [RLKRWWKFL]
MIC [10]: 2.4 µM (≈ 3.2 µg/mL) | MIC [11]: 9.8 µM (≈ 13.1 µg/mL) | MIC [12]: 4.9 µM (≈ 6.53 µg/mL) | MIC [13]: 1.2 µM (≈ 1.6 µg/mL) | MIC [14]: 9.8 µM (≈ 13.1 µg/mL) | MIC [4]: 9.8 µM (≈ 13.1 µg/mL) | MIC [15]: 1.2 µM (≈ 1.6 µg/mL)

CC[C@H](C)[C@H](N)C(=O)N[C@@H](CC(C)C)C(=O)N1CCC[C@H]1C(=O)N[C@@H](CCCCN)C(=O)N[C@@H](CCCCN)C(=O)N[C@@H](CCCCN)C(=O)N1CCC[C@H]1C(=O)N[C@@H](CCCCN)C(=O)N[C@@H](CCCCN)C(=O)N1CCC[C@H]1C(=O)N[C@@H](CCCCN)C(=O)N[C@@H](CCCN=C(N)N)C(=O)N[C@@H](CCCN=C(N)N)C(N)=O [ILPKKKPKKPKRR]
MIC [8]: ≥ 100 µM

CC[C@H](C)[C@H](NC(=O)[C@@H]1CCCN1C(=O)[C@H](CCCN=C(N)N)NC(=O)[C@H](CCCN=C(N)N)NC(=O)[C@H](Cc1ccccc1)NC(=O)[C@@H](N)CCCN=C(N)N)C(=O)N[C@@H](CCCN=C(N)N)C(=O)N[C@@H](CCCN=C(N)N)C(=O)N[C@@H](CCCN=C(N)N)C(=O)N1CCC[C@H]1C(=O)N[C@H](C(=O)N[C@@H](CCCN=C(N)N)C(=O)N1CCC[C@H]1C(=O)N1CCC[C@H]1C(=O)N[C@@H](Cc1ccccc1)C(=O)N[C@@H](Cc1ccc(O)cc1)C(=O)N1CCC[C@H]1C(=O)O)[C@@H](C)CC [RFRRPIRRRPIRPPFYP]
MIC [18]: 8 µM (≈ 18.2 µg/mL)

CC[C@H](C)[C@H](NC(=O)[C@H](CCC(=O)O)NC(=O)[C@H](CCCCN)NC(=O)[C@H](CC(C)C)NC(=O)[C@H](CCC(N)=O)NC(=O)[C@H](CCC(=O)O)NC(=O)[C@@H](NC(=O)[C@H](CC(C)C)NC(=O)[C@@H](N)CCCCN)C(C)C)C(=O)N[C@@H](Cc1ccccc1)C(=O)N[C@@H](CCCN=C(N)N)C(=O)O [KLVEQLKEIFR]
MIC [9]: ≥ 178 µM

CC[C@H](C)[C@H](NC(=O)[C@H](Cc1c[nH]c2ccccc12)NC(=O)[C@H](CCCCN)NC(=O)[C@H](CCCCN)NC(=O)[C@H](CC(C)C)NC(=O)[C@H](Cc1c[nH]c2ccccc12)NC(=O)[C@H](CCCCN)NC(=O)[C@@H](N)Cc1c[nH]c2ccccc12)C(=O)N[C@@H](CCCCN)C(=O)O [WKWLKKWIK]
MIC [10]: 0.7 µM (≈ 0.921 µg/mL) | MIC [11]: 5.8 µM (≈ 7.63 µg/mL) | MIC [12]: 11.5 µM (≈ 15.1 µg/mL) | MIC [13]: 5.8 µM (≈ 7.63 µg/mL) | MIC [14]: 2.9 µM (≈ 3.82 µg/mL) | MIC [4]: 11.5 µM (≈ 15.1 µg/mL) | MIC [15]: 0.458 µM (≈ 0.603 µg/mL)

CC[C@H](C)[C@H](NC(=O)[C@H](Cc1ccccc1)NC(=O)[C@@H](N)Cc1ccccc1)C(=O)N[C@@H](Cc1ccc(O)cc1)C(=O)N[C@H](C(=O)N[C@@H](Cc1c[nH]c2ccccc12)C(=O)N[C@@H](CCCN=C(N)N)C(=O)N[C@@H](CCCN=C(N)N)C(=O)N[C@@H](CCCN=C(N)N)C(=O)O)C(C)C [FFIYVWRRR]
MIC [10]: 1.9 µM (≈ 2.55 µg/mL) | MIC [11]: 7.6 µM (≈ 10.2 µg/mL) | MIC [12]: 7.6 µM (≈ 10.2 µg/mL) | MIC [13]: 3.8 µM (≈ 5.1 µg/mL) | MIC [14]: 15.3 µM (≈ 20.5 µg/mL) | MIC [4]: 3.8 µM (≈ 5.1 µg/mL) | MIC [15]: 1 µM (≈ 1.34 µg/mL)

CC[C@H](C)[C@H](NC(=O)[C@H](CCCN=C(N)N)NC(=O)[C@H](CCCN=C(N)N)NC(=O)[C@@H]1CCCN1C(=O)[C@@H]1CCCN1C(=O)[C@H](CCCN=C(N)N)NC(=O)[C@@H]1CCCN1C(=O)[C@H](CCCN=C(N)N)NC(=O)[C@@H]1CCCN1C(=O)[C@H](CC(C)C)NC(=O)[C@H](Cc1ccc(O)cc1)NC(=O)[C@@H]1CCCN1C(=O)[C@@H]1CCCN1C(=O)[C@H](CCCCN)NC(=O)[C@H](CC(=O)O)NC(=O)[C@@H](N)C(C)C)C(=O)N[C@@H](Cc1ccc(O)cc1)C(=O)N[C@@H](CC(N)=O)C(=O)N[C@@H](CCCN=C(N)N)C(=O)N[C@@H](CC(N)=O)C(=O)O [VDKPPYLPRPRPPRRIYNRN]
MIC [16]: 3.19 µM (≈ 8 µg/mL) | MIC [17]: 6.39 µM (≈ 16 µg/mL)
